Reference: US8501746B2, “Organic compounds” (Xenon Pharmaceuticals Inc., priority 2006, dated 2013)

Key:
[1] = target: T1, stearoyl-CoA desaturase (SCD1) (Mus musculus, UniProt P13516); assay: SCD microsomal assay: release of 3H2O from [9,10-3H]stearoyl-CoA in mouse liver microsomes; assay type: biochemical; settings: 15 min incubation, 25° C.
T1 construct: Reactions are started by adding 50 μL of microsomes (1.25 mg/mL); from tissue; host or cells: liver microsomes of male ICR outbred mice on a high-carbohydrate, low-fat diet
T1 sequence (P13516 1-355): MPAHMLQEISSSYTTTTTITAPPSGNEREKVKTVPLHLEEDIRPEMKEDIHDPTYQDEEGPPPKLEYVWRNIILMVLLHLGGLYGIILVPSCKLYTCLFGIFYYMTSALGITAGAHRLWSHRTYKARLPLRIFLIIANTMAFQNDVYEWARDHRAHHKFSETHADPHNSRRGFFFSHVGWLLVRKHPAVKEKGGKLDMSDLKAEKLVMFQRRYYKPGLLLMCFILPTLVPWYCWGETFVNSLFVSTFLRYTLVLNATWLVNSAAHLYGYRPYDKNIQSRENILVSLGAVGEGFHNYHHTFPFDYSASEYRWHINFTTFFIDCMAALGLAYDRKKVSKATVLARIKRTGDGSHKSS
Description: Measuring Stearoyl-CoA Desaturase Inhibition Activity of a Test Compound Using Mouse Liver Microsomes
Livers are immediately rinsed with cold 0.9% NaCl solution, weighed and minced with scissors. All procedures are performed at 4° C. unless specified otherwise. Livers are homogenized in a solution (1/3 w/v) containing 0.25 M sucrose, 62 mM potassium phosphate buffer (pH 7.0), 0.15 M KCl, 15 mM N-acetylcysteine, 5 mM MgCl2, and 0.1 mM EDTA using 4 strokes of a Potter-Elvehjem tissue homogenizer. The homogenate is centrifuged at 10,400×g for 20 min to eliminate mitochondria and cellular debris. The supernatant is filtered through a 3-layer cheesecloth and centrifuged at 105,000×g for 60 min. The microsomal pellet is gently resuspended in the same homogenization solution with a small glass/teflon homogenizer and stored at −70° C. The absence of mitochondrial contamination is enzymatically assessed. The protein concentration is measured using bovine serum albumin as the standard.
Incubation of Mouse Liver Microsomes with Test Compounds:
Desaturase activity is measured as the release of ^3H2O from [9,10-^3H]stearoyl-CoA. Reactions per assay point conditions are as follows: 2 μL 1.5 mM stearoyl-CoA, 0.25 μL 1 mCi/mL ^3H stearoyl CoA, 10 μL 20 mM NADH, 36.75 μL 0.1 M PK buffer (K2HPO4/NaH2PO4, pH 7.2). The test compound or control solution is added in a 1 μL volume. […] The plates are mixed and after 15 min incubation on a heating block (25° C.), the reactions are stopped by the addition of 10 μL 60% PCA. An aliquot of 100 μL is then transferred to a filter plate pretreated with charcoal and the plate centrifuged at 4000 rpm for 1 minute. The flow through containing the ^3H2O released by the SCD1 desaturation reaction is added to scintillation fluid and the radioactivity measured in a Packard TopCount. The data is analysed to identify the IC50 for test compounds and reference compounds.
The activity was defined in terms of % SCD enzyme activity remaining at the desired concentration of the test compound or as the IC50 concentration.

IC50 [1] [nM]	melting point	SMILES
30	218 to 221 °C	Cc1nc(-n2ccc3c(O)cccc3c2=O)sc1C(=O)NCc1ccccc1 [Example 7.1, N-Benzyl-2-(5-hydroxy-1-oxoisoquinolin-2(1H)-yl)-4-methylthiazole-5-carboxamide]
800	110 °C (dec.)	Cc1cc(-n2ccc(O)cc2=O)sc1C(=O)NCc1cccnc1 [Example 7.6, 5-(4-Hydroxy-2-oxopyridin-1(2H)-yl)-3-methyl-N-(pyridin-3-ylmethyl)thiophene-2-carboxamide]
	149 to 151 °C	Cc1nc(-n2ccc(C3CC3)cc2=O)sc1C(=O)NCc1ccccc1 [Example 19.1, N-Benzyl-2-(4-cyclopropyl-2-oxopyridin-1(2H)-yl)-4-methylthiazole-5-carboxamide]
180		Cc1nc(-n2ccc(OCc3c(C)noc3C)cc2=O)sc1C(=O)NCc1ccccc1 [Example 21.13, N-benzyl-2-(4-((3,5-dimethylisoxazol-4-yl)methoxy)-2-oxopyridin-1(2H)-yl)-4-methylthiazole-5-carboxamide]
50		Cc1nc(-n2ccc(OCc3ccccc3)cc2=O)sc1C(=O)NCc1ccc(Cl)nc1 [Example 22.19, 2-(4-(Benzyloxy)-2-oxopyridin-1(2H)-yl)-N-((6-chloropyridin-3-yl)methyl)-4-methylthiazole-5-carboxamide]

Continued, compound first:

SMILES	IC50 [1] [nM]	melting point
Cc1nc(-n2ccc(OCC3CC3)cc2=O)sc1C(=O)NCc1ccccc1 [Example 1.1, N-Benzyl-2-(4-(cyclopropylmethoxy)-2-oxopyridin-1(2H)-yl)-4-methylthiazole-5-carboxamide]	400	218 to 220 °C
COc1ccn(-c2nc(C)c(C(=O)NCc3ccccc3)s2)c(=O)c1 [Example 1.2, N-Benzyl-2-(4-methoxy-2-oxopyridin-1(2H)-yl)-4-methylthiazole-5-carboxamide]	90	205 to 208 °C
Cc1nc(-n2ccc(OCc3ccccc3)cc2=O)[nH]c1C(=O)NCc1ccccc1 [Example 1.7, N-Benzyl-2-(4-(benzyloxy)-2-oxopyridin-1(2H)-yl)-4-methyl-1H-imidazole-5-carboxamide]	220	183 to 184 °C
Cc1nc(-n2ccc(O)cc2=O)sc1C(=O)NCc1ncco1 [Example 1.22, 2-(4-Hydroxy-2-oxopyridin-1(2H)-yl)-4-methyl-N-(oxazol-2-ylmethyl)thiazole-5-carboxamide]	430	
Cc1nc(-n2cccc(C(F)(F)F)c2=O)sc1C(=O)NCc1ccccc1 [Example 3.5, N-Benzyl-4-methyl-2-(2-oxo-3-(trifluoromethyl)pyridin-1(2H)-yl)thiazole-5-carboxamide]	150	203 to 204 °C
Cc1nc(-n2ccccc2=O)sc1C(=O)NCc1ccc(F)cc1 [Example 3.11, N-(4-Fluorobenzyl)-4-methyl-2-(2-oxopyridin-1(2H)-yl)thiazole-5-carboxamide]	230	170 to 172 °C
Cc1cc(-n2ccc(OCc3ccccc3)cc2=O)oc1C(=O)NCc1ccccc1 [Example 3.19, N-Benzyl-5-(4-(benzyloxy)-2-oxopyridin-1(2H)-yl)-3-methylfuran-2-carboxamide]	5700	191 to 192 °C
Cc1ccn(-c2nc(C)c(C(=O)NCc3ccccc3)s2)c(=O)c1 [Example 20, N-Benzyl-4-methyl-2-(4-methyl-2-oxopyridin-1(2H)-yl)thiazole-5-carboxamide]		145 to 147 °C
Cc1cc(-n2ccc(CCc3ccccc3)cc2=O)sc1C(=O)NCc1ccccc1 [Example 24, N-benzyl-3-methyl-5-(2-oxo-4-phenethylpyridine-1(2H)-yl)thiophene-2-carboxamide]		145 to 146 °C
Cc1cc(-n2ccc(OCCCO)cc2=O)sc1C(=O)NCc1cccc(F)c1 [Example 25, N-(3-Fluorobenzyl)-5-(4-(3-hydroxypropoxy)-2-oxopyridin-1(2H)-yl)-3-methylthiophene-2-carboxamide]		135 to 137 °C
Cc1nc(-n2ccc(N3CCNC3=O)cc2=O)sc1C(=O)NCc1ccccc1 [Example 26, N-Benzyl-4-methyl-2-(2-oxo-4-(2-oxoimidazolidin-1-yl)pyridin-1(2H)-yl)thiazole-5-carboxamide]		> 300 °C
COc1ccn(-c2nc(C)c(C(=O)NCc3ccc[n+]([O-])c3)s2)c(=O)c1 [Example 27, 3-((2-(4-methoxy-2-oxopyridin-1(2H)-yl)-4-methylthiazole-5-carboxamido)methyl)pyridine 1-oxide]		255 to 257 °C
